One series concerns PC-12 cells. Nature of the series: Bioactivity assay of released NGF, PC-12 differentiation. In kind it is cell-based. As to conditions: 4 days culture in supernatant of MurA-induced transfected hDFBs; p≦0.002. How it is done: PC-12 cells were obtained from ATCC (CRL-1721). PC-12 cells were maintained in F12k supplemented with 15% horse serum (Sigma, St. Louis, Mo.), 2.5% FBS, and penicillin-streptomycin-glutamine mixture (Gibco). For the NGF bioactivity assay, PC-12 cells were seeded at 10^2 cells/750 μL in 12-well plates.
NGF Bioactivity. Bioactivity assay of released NGF was assessed using PC-12 cells with their differentiation as the endpoint. PC-12 cells were incubated with PC.12 culture media (control) or media supernatants from transfected hDFBs in the presence of MurA (i.e., media with released NGF). Briefly, hDFBs were cultured and exposed to 3 μM Muristerone for 3 days in 12-well plates.
The media, theoretically with containing NGF released from transfected hDFBs, was then removed and used to culture PC-12 cells in 12-well plates. After 4 days, random images were digitized of each well and the number of differentiated and undifferentiated Data are reported as fraction of PC-12 cells that were differentiated.

The subject of series [1] is right sciatic nerve defect. As to conditions: rat, in vivo.
Protocol: Surgical Technique. Twenty-one Sprague Dawley (250 gms) rats with a right sciatic nerve defect were implanted with the 12 mm PLLA conduits. […] Briefly the animals were anesthetized and maintained by a 0.4 cc intramuscular injection of a premixed solution containing 64 mg/ml ketamine HCL (Keta-Sthetic™ Boehringer Ingelheim, St Joseph, Mo.), 3.6 mg/ml xylazine (Rompun™ Miles Inc., Shawnee Mission, Kans.), and 0.07 mg/ml atropine sulfate (Elkins-Sinn Inc., Cherry Hill, N.J.). The skin from the clipped lateral thigh was scrubbed in a routine fashion with antiseptic solution. The incision extended from the greater trochanter to the midcalf distally. The sciatic and posterior tibial nerves were exposed by a muscle splitting incision. […]
The medical and lateral gastrocnemius muscle was harvested at 6 and 16 weeks and weighed in order to assess nerve reinnervation. […] The difference in weight of the containers before and after muscle placement determined the muscle weight.
Histological Assessment. […] Images of the histological sections were digitized using a CCD camera and subsequently analyzed using standard image processing and analysis techniques. […] The number of axons were counted to give the number of axons/mm^2. The area of each axon was determined, summed together, and expressed as area axons/image area to give the nerve fiber density. […]

This note sets out measurements from US20020137706A1, “Regulated growth factor delivery for engineered peripheral nerve” (priority 2000, published 2002).

For “NGF secreted from hDFBs: nerve growth factor in media supernatants from transfected hDFBs in the presence of MurA”, the “PC-12 differentiation versus media alone” value in the series with PC-12 cells is “markedly higher levels”.
For the substance poly (L-Lactic acid) [PLLA conduits], in series [1], the inflammatory reaction result was “No severe inflammatory reaction could be identified” and the neuromas entry is “no neuromas were apparent clinically”.
